Reference: patent publication US8999952B2, “Aripiprazole complex formulation and method” (Otsuka Pharmaceutical Co., Ltd., priority 2002, dated 2015)

How the values were obtained:
[1] = tissue irritation at the intramuscular injection site; type: in vivo; conditions: intramuscular (IM) injectable solution in water-miscible co-solvent and water-immiscible solvent/co-solvent systems
[2] = aqueous solubility; type: physicochemical; conditions: water; at room temperature

For `O=C1CCc2ccc(OCCCCN3CCN(c4cccc(Cl)c4Cl)CC3)cc2N1` [Aripiprazole], the “tissue irritation at the muscular site” value [1] was “unacceptable (moderate to severe) tissue irritation” and the solubility [2] was less than 1 µg/mL.
